Assay results published in patent publication US9914730B2, “Azaquinazoline inhibitors of Atypical protein Kinase C” (Ignyta, Inc., priority 2012, dated 2018).

Target: T1, full-length human PKCι (Homo sapiens, UniProt P41743)
T1 construct: Recombinant, full-length human PKCι expressed in Sf21 insect cells is also commercially available; purchased; host or cells: Sf21 insect cells
T1 sequence (P41743 1-596): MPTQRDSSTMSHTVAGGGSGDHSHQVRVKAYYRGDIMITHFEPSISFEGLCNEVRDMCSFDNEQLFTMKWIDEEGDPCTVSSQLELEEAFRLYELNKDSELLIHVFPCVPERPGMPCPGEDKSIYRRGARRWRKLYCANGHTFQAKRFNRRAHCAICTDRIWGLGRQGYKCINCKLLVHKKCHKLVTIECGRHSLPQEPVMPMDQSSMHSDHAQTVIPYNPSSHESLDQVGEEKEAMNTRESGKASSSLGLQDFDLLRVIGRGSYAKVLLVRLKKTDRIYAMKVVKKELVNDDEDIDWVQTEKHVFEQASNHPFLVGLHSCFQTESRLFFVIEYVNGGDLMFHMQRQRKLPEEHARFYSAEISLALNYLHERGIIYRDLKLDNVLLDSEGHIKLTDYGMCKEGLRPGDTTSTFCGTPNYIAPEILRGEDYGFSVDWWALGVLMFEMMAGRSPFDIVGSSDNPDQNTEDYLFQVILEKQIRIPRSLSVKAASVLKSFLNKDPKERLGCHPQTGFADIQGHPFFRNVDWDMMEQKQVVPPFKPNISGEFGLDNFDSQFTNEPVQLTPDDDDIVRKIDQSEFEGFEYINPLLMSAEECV
Assay: PKCι IC50 IMAP assay, full-length PKCι at 150 μM ATP
Type: biochemical
Conditions: read-out: IC50 in IMAP assay against full length PKCi at 150 μM ATP
Summary of the method: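 IC50 from IMAP FP (ex 485/em 530 nm) after 60 min room-temperature reaction in pH 7.5 tris buffer with 9 mM MgCl2 and 0.9 mM DTT. Enzyme: full-length Sf21-expressed PKCι (~15 pM); ATP 150 μM, five times KM^APP; FAM-labelled peptide 100 nM; DMSO 4%.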

SMILES | IC50 [nM]
CC(C)(C)c1cc2c(-c3nc(N4CCC(O)CC4)c4c(C5CC5)cncc4n3)ccnc2[nH]1 [Example 1247, 1-[2-(2-tert-Butyl-1H-pyrrolo[2,3-b]pyridin-4-yl)-5-cyclopropyl-pyrido[3,4-d]pyrimidin-4-yl]-piperidin-4-ol] | < 100
N[C@H](CNc1nc(-c2ccncc2)nc2c(-c3ccc4[nH]cnc4c3)nccc12)Cc1ccccc1 [Example 116, N-[(2S)-2-amino-3-phenylpropyl]-8-(1H-1,3-benzodiazol-5-yl)-2-(pyridin-4-yl)pyrido[3,4-d]pyrimidin-4-amine] | 1000 to 10000
Cc1ccc(F)c(Nc2cc(-c3nc(N4CCNCC4)c4c(C5CC5)cncc4n3)ccn2)c1F [Example 557, [4-(5-Cyclopropyl-4-piperazin-1-yl-pyrido[3,4-d]pyrimidin-2-yl)-pyridin-2-yl]-(2,6-difluoro-3-methyl-phenyl)-amine] | < 100
OC1CCC(Nc2cc(-c3nc(N4CCNCC4)c4c(C5CC5)cncc4n3)ccn2)CC1 (stereo not shown) [Example 633, 4-[4-(5-Cyclopropyl-4-piperazin-1-yl-pyrido[3,4-d]pyrimidin-2-yl)-pyridin-2-ylamino]-cyclohexanol] | < 100
CCCc1nccc2c(N3CCNCC3)nc(-c3ccncc3)nc12 [Example 159, 4-piperazin-1-yl-8-propyl-2-pyridin-4-yl-pyrido[3,4-d]pyrimidine] | 10000 to 40000
COc1cncc2nc(-c3ccnc(Nc4ccc(C5CCOCC5)cc4)c3)nc(N3CCNCC3)c12 [Example 362, [4-(5-Methoxy-4-piperazin-1-yl-pyrido[3,4-d]pyrimidin-2-yl)-pyridin-2-yl]-[4-(tetrahydro-pyran-4-yl)-phenyl]-amine] | < 100
FC(F)(F)Cn1ccc(Nc2cc(-c3nc(N4CCNCC4)c4c(C5CC5)cncc4n3)ccn2)n1 [Example 2016, [4-(5-Cyclopropyl-4-piperazin-1-yl-pyrido[3,4-d]pyrimidin-2-yl)-pyridin-2-yl]-[1-(2,2,2-trifluoro-ethyl)-1H-pyrazol-3-yl]-amine] | < 100
c1ccc2c(c1)[nH]c1nccc(-c3nc(N4CCNCC4)c4c(C5CCC5)cncc4n3)c12 [Example 2090, 4-(5-Cyclobutyl-4-piperazin-1-yl-pyrido[3,4-d]pyrimidin-2-yl)-9H-pyrido[2,3-b]indole] | 100 to 1000
O[C@H]1c2ccccc2C[C@@H]1Nc1cc(-c2nc(N3CCNCC3)c3c(C4CC4)cncc3n2)ccn1 (relative stereo) [Example 2158, trans-2-[4-(5-Cyclopropyl-4-piperazin-1-yl-pyrido[3,4-d]pyrimidin-2-yl)-pyridin-2-ylamino]-indan-1-ol] | < 100
O=C(NC1CCCCC1)N1CCN(c2nc(-c3ccncc3)nc3cnccc23)CC1 [Example 57, N-cyclohexyl-4-[2-(pyridin-4-yl)-pyrido[3,4-d]-pyrimidin-4-yl]-piperazine-1-carboxamide] | 10000 to 40000
COc1cncc2nc(-c3ccnc(Nc4ccccc4)c3)nc(N[C@@H]3CCN(CC(N)=O)C3)c12 [Example 245, 2-{3-[5-Methoxy-2-(2-phenylamino-pyridin-4-yl)-pyrido[3,4-d]pyrimidin-4-ylamino]-R-pyrrolidin-1-yl}-acetamide] | 1000 to 10000
Fc1ccc(-c2cc3c(-c4nc(N5CCNCC5)c5c(C6CC6)cncc5n4)ccnc3[nH]2)cc1 [Example 1230, 5-Cyclopropyl-2-[2-(4-fluoro-phenyl)-1H-pyrrolo[2,3-b]pyridin-4-yl]-4-piperazin-1-yl-pyrido[3,4-d]pyrimidine] | < 100
CNc1ccc(Nc2nc(-c3ccnc(Nc4ncc(F)cc4F)c3)nc3cncc(C4CC4)c23)cc1 [Example 2206, N-{5-Cyclopropyl-2-[2-(3,5-difluoro-pyridin-2-ylamino)-pyridin-4-yl]-pyrido[3,4-d]pyrimidin-4-yl}-N′-methyl-benzene-1,4-diamine] | 10000 to 40000
N[C@H](CNc1nc(-c2ccncc2)nc2c(Nc3ncccn3)nccc12)Cc1ccccc1 [Example 124, 4-N-[(2S)-2-amino-3-phenylpropyl]-2-(pyridin-4-yl)-8-N-(pyrimidin-2-yl)pyrido[3,4-d]pyrimidine-4,8-diamine] | 1000 to 10000
Cc1ccc(Nc2cc(-c3nc(N4CCNCC4)c4c(C5CC5)cncc4n3)ccn2)c(Cl)c1 [Example 572, (2-Chloro-4-methyl-phenyl)-[4-(5-cyclopropyl-4-piperazin-1-yl-pyrido[3,4-d]pyrimidin-2-yl)-pyridin-2-yl]-amine] | < 100
CC(C)(C)c1cc2c(-c3nc(N4CCNC(=O)CC4)c4c(C5CC5)cncc4n3)ccnc2[nH]1 [Example 1249, 1-[2-(2-tert-Butyl-1H-pyrrolo[2,3-b]pyridin-4-yl)-5-cyclopropyl-pyrido[3,4-d]pyrimidin-4-yl]-[1,4]diazepan-5-one] | < 100
COc1cncc2nc(-c3ccnc(Nc4ccccc4)c3)nc(N3CCNCC3)c12 [Example 200, [4-(5-Methoxy-4-piperazin-1-yl-pyrido[3,4-d]pyrimidin-2-yl)-pyridin-2-yl]-phenyl-amine] | < 100
COc1cncc2nc(-c3ccncc3)nc(N3CCCCC3)c12 [Example 151, 5-Methoxy-4-piperidin-1-yl-2-pyridin-4-yl-pyrido[3,4-d]pyrimidine] | 100 to 1000
CS(=O)(=O)C[C@H]1CN(c2nc(-c3ccnc(Nc4c(F)cccc4F)c3)nc3cncc(C4CC4)c23)CCN1 [Example 772, {4-[5-Cyclopropyl-4-((R)-3-methanesulfonyl-methyl-piperazin-1-yl)-pyrido[3,4-d]pyrimidin-2-yl]-pyridin-2-yl}-(2,6-difluoro-phenyl)-amine] | 100 to 1000
COc1cncc2nc(-c3ccnc(Nc4ccccc4F)c3)nc(N3CCNCC3)c12 [Example 206, (2-Fluoro-phenyl)-[4-(5-methoxy-4-piperazin-1-yl-pyrido[3,4-d]pyrimidin-2-yl)-pyridin-2-yl]-amine] | < 100
Clc1cncc2nc(-c3ccncc3)nc(N3CCNCC3)c12 [Example 132, 5-Chloro-4-piperazin-1-yl-2-pyridin-4-yl-pyrido[3,4-d]pyrimidine] | < 100
N#Cc1ccnc(Nc2cc(-c3nc(N4CC[C@H](O)[C@H](O)C4)c4c(C5CC5)cncc4n3)ccn2)c1 (stereo in doubt) [Example 487, 2-{4-[5-Cyclopropyl-4-((3R,4S)-3,4-dihydroxy-piperidin-1-yl)-pyrido[3,4-d]pyrimidin-2-yl]-pyridin-2-ylamino}-isonicotinonitrile] | < 100
COc1cncc2nc(N3CCOCC3)nc(N3CCNCC3)c12 [Example 1003, 5-Methoxy-2-morpholin-4-yl-4-piperazin-1-yl-pyrido[3,4-d]pyrimidine] | 100 to 1000
Fc1ccc(F)c(Nc2cc(-c3nc(N4CCNCC4)c4c(C5CC5)cncc4n3)ccn2)c1 [Example 521, [4-(5-Cyclopropyl-4-piperazin-1-yl-pyrido[3,4-d]pyrimidin-2-yl)-pyridin-2-yl]-(2,5-difluoro-phenyl)-amine] | < 100
FC(F)(F)C1(c2cc3c(-c4nc(N5CCNCC5)c5c(C6CC6)cncc5n4)ccnc3[nH]2)CC1 [Example 1238, 5-Cyclopropyl-4-piperazin-1-yl-2-[2-(1-trifluoromethyl-cyclopropyl)-1H-pyrrolo[2,3-b]pyridin-4-yl]-pyrido[3,4-d]pyrimidine] | < 100
